Laboratory results taken from patent US8217024B2, “Conjugated estrogen compositions, applicators, kits, and methods of making and use thereof” (Teva Women's Health, Inc., priority 2005, dated 2012).

Experiment: Spreadability study (125 g load on 2 g product between two petri plates)
Format: physicochemical
Details: 15 minutes after 125 g load on 2 g of product
Protocol: Spreadability studies were also performed for the formulations described in Table 4. Spreadability studies were conducted by applying a 125 g weight load on 2 g of product placed between two petri plates. The weight was placed on the petri plate over the product and the mean diameter of spreading was monitored over 1, 5, and 15 minutes. Based upon the mean spread diameter, the spread area was calculated. See, e.g., De Paula et al., Drug Dev Ind Pharm 24(3): 235-241 (1998). The results for spreadability are indicated in Table 5 for spread area at 15 minutes after the 125 g load was applied.

Structure (SMILES)	% Spread as compared to estimated human vaginal surface area (87.5 cm^2) [%]	Spread Area (cm^2)
OCC(O)CO [Glycerin]	80.2	70.2
O [Water]	89.4	78.2
